The values below are quoted from earlier work in patent US20060275372A1 (Elan Pharma International Limited, priority 2005, published 2006).

Structures can show the parent of a compound that is named as a salt.

The conditions of this data set: fasting state as compared to the fed state.

With `Cc1ccc(NC(=O)c2ccc(CN3CCN(C)CC3)cc2)cc1Nc1nccc(-c2cccnc2)n1` [Imatinib mesylate, 4-[(4-Methyl-1-piperazinyl)methyl]-N-[4-methyl-3-[[4-(3-pyridinyl)-2-pyrimidinyl]amino]-phenyl]benzamide methanesulfonate], the bioavailability result is given as “limited bioavailability”.
